Experimental data published in patent US20080039410A1, “Inositol 1,4,5-Trisphosphate Receptor Mutants and Uses Thereof” (priority 2004, published 2008).
Entries after “also recorded” stand apart in the source; their conditions may differ.

Tests used:
[1] = system: S2+ InsP3R-1; assay: CCh concentration-response of Ca2+ release in Dt-40 3ko cells expressing m3R and S2+ InsP3R-1 constructs; format: cell-based, rat; conditions: for maximum peak Δ response to CCh: Fura-2 340/380 ratio; for fold change from WT (CCh EC50): S2 + InsP3R-1 constructs, Table 2; for EC50: fit of normalized initial peak, read-out: EC50 for CCh-induced Ca^2+ release
Source text: The rat S2^+ InsP3R-1 in the expression plasmid pIRES-GFP was digested with the restriction endonuclease SalI. The overhang created by digestion was blunted by using T4 polymerase. An EcoRI linker was then ligated onto the blunted ends of the construct. The entire receptor DNA was excised from the plasmid using EcoRI and ligated into the plasmid MXT-1. The region containing the S2^− splice variant and potential PKA phosphorylation sites was excised from its backbone in pCDNA 3.1+ by RsrII and KasI and ligated into the InsP3R construct in MXT-1. The potential PKA phosphorylation sites Ser-1589 and Ser-1755 were mutated, individually in both splice variants and together in the S2^− splice variant, to alanines or glutamates by using sequential PCR mutagenesis. The outside primers used for the mutagenesis reaction flanked the restriction sites RsrII and KasI. Following mutation, the resulting fragments were cut with RsrII and KasI and inserted into the InsP3R-1 backbone at the corresponding sites. The mutations were confirmed by Big Dye fluorescent sequencing. Mutated receptor DNAs were excised from MXT-1 by using EcoRI and ligated into the mammalian expression vector pGW (provided by Dr. David Yue, Johns Hopkins University). Orientation was confirmed by using restriction enzyme digestion. Mutants were named based on the splice variant, either S2+ or S2− followed by the amino acid present at position 1589 and 1755. Thus, a mutation in S2^+ InsP3R-1 S1755E is designated, “S2+SE,” and in InsP3R-1 […] S1755A is designated “S2^−SA”. Similarly, an S2− InsP3R-1 with mutations in both S1589E and S1755E is designated “S2−EE”. The numbering of residues is based on the full-length rat InsP3R-1.
Dt-40 cells lacking all three InSP3 receptor subtypes were transfected by using electroporation at 350 V and 950 microfarads (4-mm gap cuvette). 2×10^7 cells were co-transfected with 25 μg of the InsP3R-1 cDNA, 25 μof the muscarinic type 3 (m3R) receptor DNA, and 4 μg of the red fluorescent protein plasmid pHcRed1-N1 (Clontech). Cells were incubated with DNA in 500 μl of Opti-MEM media (Invitrogen) on ice for 10 min. The cell/DNA mixture was electroporated, incubated on ice for 30 min, increased to 5 ml with Opti-MEM, and placed in a 5% CO2 incubator at 39° C. for 5 h. The cells were then centrifuged and resuspended in 12 ml of complete RPMI media (Invitrogen). Transfection efficiency was typically ˜20%. Experiments were performed within 32 h of transfection.
Transfected Dt-40 3ko cells were washed once in a HEPES-buffered physiological saline solution (HEPES-PSS) containing (in mM) 5.5 glucose, 137 NaCl, 0.56 MgCl2, 4.7 KCl, 1 Na2HPO4, 10 HEPES (pH 7.4), 1.2 CaCl2, and 1% w/v bovine serum albumin. Cells were then resuspended in bovine serum albumin HEPES-PSS with 1 μM Fura-2 (AM), placed on a 15-mm glass coverslip in a low volume perfusion chamber, and allowed to adhere for 30 min at room temperature. Cells were perfused continuously for 10 min with HEPES-PSS before experimentation to allow complete Fura-2 de-esterification. A field of cells for each experiment was chosen that contained a wide range of transfection efficiency based upon the intensity of red fluorescence emitted when excited at 560 nm. Individual cells that had emission gray levels between 1500 and 2500 were subsequently chosen to standardize expression levels. [Ca^2+]i imaging was performed essentially as described previously by using an inverted epifluorescence Nikon microscope with a 40× oil immersion objective lens (numerical aperture, 1.3) (100). Cells were excited alternately with light at 340 and 380±10 nm bandpass filters (Chroma, Rockingham, Vt.) using a monochrometer (TILL Photonics, Pleasanton, Calif.). Fluorescence images were captured and digitized with a digital camera driven by TILL Photonics software. Images were captured every 2 s with an exposure of 2 ms and 4 by 4 binning. 340/380 ratio images were calculated online and stored immediately to a hard disk. […]

[2] = system: S2− InsP3R-1; assay: Ca2+ oscillations after α-IgM antibody stimulation of Dt-40 3ko cells expressing S2− constructs; format: cell-based, rat; conditions: for Ca^2+ signal pattern: 250 ng/ml α-IgM antibody (threshold)
Source text: Cells transfected with WT and mutant S2− isoforms were stimulated with varying concentrations of an α-IgM antibody (Southern Biotechnology Associates, Inc., Birmingham, Ala.). Infrequent Ca^2+ oscillations were produced presumably through B cell receptor cross-linking, activation of phospholipase C-γ, and subsequent production of InsP3.
In many nonelectrically excitable cell types, the physiological mode of Ca^2+ signaling is through the generation of Ca^2+ oscillations (1, 108). Moreover, it is a generally held view that the spatial and temporal properties of Ca^2+ oscillations make an important contribution to defining the fidelity and specificity of Ca^2+ signaling. In many current models addressing the mechanism underlying Ca^2+ oscillations, a key feature is the regulation of Ca^2+ release through InsP3R. Experiments were then designed to assess the consequences of InsP3R-1 phosphorylation (expressed in isolation) on the initiation and generation of Ca^2+ oscillations. An α-IgM antibody was chosen to stimulate and to initiate Ca^2+ oscillations through activation of the endogenous B cell receptor, phospholipase C-γ activation, and the formation of InsP3. Dt-40 3ko cells expressing either S2−WT or S2−EE to mimic PKA phosphorylation of the InsP3R-1 were stimulated with various concentrations of α-IgM antibody as illustrated by the selection of representative traces in FIG. 24. […] This latter observation presumably reflects the fact that the frequency of oscillations is primarily defined by mechanisms such as Ca^2+ feedback (109) rather than the absolute sensitivity of the InsP3R-1 to InsP3 within a defined range. […] Given the almost ubiquitous expression of various forms of InsP3R-1, this is likely a generally important phenomenon. […] These include modulation of InSP3 binding, an idea supported by measurements of InsP3R binding in hepatocytes (112) (presumably S2− InsP3R-1 and InsP3R-2). In these studies the apparent affinity of InsP3 binding was enhanced ˜2-fold at resting [Ca^2+], and the [Ca^2+] necessary for half-maximal stimulation of InsP3 binding was reduced. In contrast, a study of recombinant S1−S2+InsP3R-1 expressed in SF9 cells and reconstituted into lipid bilayers has reported a similar increase in InsP3R sensitivity to InsP3 but that the bell-shaped Ca^2+ sensitivity of channel opening is not altered following phosphorylation of the InsP3R-1 (23). These findings indicate that modulation of the Ca^2+ sensitivity of channel activity is unlikely to account for the increased apparent sensitivity of the receptor, at least in this form of the InsP3R-1. There are a number of alternative mechanisms for altering InsP3R-1 sensitivity are conceivable. For example, phosphorylation of the receptor could alter the gating of the channel directly. In addition, phosphorylation might secondarily modulate the receptor by regulation of the association of regulatory factors such as proteins or adenine nucleotides (113-115).

| Substance | maximum peak Δ response to CCh [1] | fold change from WT (CCh EC50) [1] | EC50 [1] | Ca^2+ signal pattern [2] | latency before the increase in Ca^2+ versus S2−WT ([2]; 500 ng/ml α-IgM antibody) | magnitude of the initial transient versus WT ([2]; 500 ng/ml α-IgM antibody) | latency, frequency or initial peak magnitude versus S2−WT ([2]; 1 μg/ml α-IgM antibody) | fold more sensitive than S2+WT (CCh-induced Ca^2+ release) [1] | fold more sensitive than nonphosphorylatable S2+SA [1] | sensitivity of CCh-induced Ca^2+ release relative to other constructs [1] |
| --- | --- | --- | --- | --- | --- | --- | --- | --- | --- | --- |
| S2+ES: S2+ InsP3R-1, long splice variant with S1589E | 0.59±0.2 ratio units | 1.3 fold | 0.0237 ± 0.0012 µM |  |  |  |  |  |  |  |
| S2−EE: phosphomimetic S1589E/S1755E mutant of the short splice variant |  |  |  | repetitive Ca^2+ transients following a much shorter latency; also recorded: multiple Ca^2+ transients | significantly shorter | significantly larger | indistinguishable |  |  |  |
| S2+SE: phosphomimetic S2+ InsP3R-1, long splice variant of S1755E | 0.59±0.1 ratio units | 8.9 fold | 0.0036 ± 0.0002 µM |  |  |  |  | ~9 fold | ~32 fold | increased sensitivity |
| S2−WT: wild-type rat type-1 InsP3 receptor, peripheral short S2− splice variant (SEQ ID NO: 17) |  |  |  | single small increase in [Ca^2+]i after a long latency; also recorded: single Ca^2+ transient after a long latency |  |  |  |  |  |  |
